{"source": "ChEMBL document CHEMBL4421721", "about": "“Use of dynamin ring stabilizers” (2012)", "key": {"Ovis aries [1]": {"species": "Ovis aries", "assay": "Inhibition of full-length native sheep brain dynamin 1 assessed as reduction in PS liposomes-induced GTPase activity at 5 uM"}, "Ovis aries [2]": {"species": "Ovis aries", "assay": "Ring stabilizer activity at full-length native sheep brain dynamin 1 assessed as stimulation of GTPase activity at 5 uM in absence of PS liposomes using <100 nM full-length dynamin 1"}, "Dynamin-1 (Mus musculus) [3]": {"biological_target": "T1, Dynamin-1 (Mus musculus) (UniProt P39053)", "T1 sequence (whole entry)": "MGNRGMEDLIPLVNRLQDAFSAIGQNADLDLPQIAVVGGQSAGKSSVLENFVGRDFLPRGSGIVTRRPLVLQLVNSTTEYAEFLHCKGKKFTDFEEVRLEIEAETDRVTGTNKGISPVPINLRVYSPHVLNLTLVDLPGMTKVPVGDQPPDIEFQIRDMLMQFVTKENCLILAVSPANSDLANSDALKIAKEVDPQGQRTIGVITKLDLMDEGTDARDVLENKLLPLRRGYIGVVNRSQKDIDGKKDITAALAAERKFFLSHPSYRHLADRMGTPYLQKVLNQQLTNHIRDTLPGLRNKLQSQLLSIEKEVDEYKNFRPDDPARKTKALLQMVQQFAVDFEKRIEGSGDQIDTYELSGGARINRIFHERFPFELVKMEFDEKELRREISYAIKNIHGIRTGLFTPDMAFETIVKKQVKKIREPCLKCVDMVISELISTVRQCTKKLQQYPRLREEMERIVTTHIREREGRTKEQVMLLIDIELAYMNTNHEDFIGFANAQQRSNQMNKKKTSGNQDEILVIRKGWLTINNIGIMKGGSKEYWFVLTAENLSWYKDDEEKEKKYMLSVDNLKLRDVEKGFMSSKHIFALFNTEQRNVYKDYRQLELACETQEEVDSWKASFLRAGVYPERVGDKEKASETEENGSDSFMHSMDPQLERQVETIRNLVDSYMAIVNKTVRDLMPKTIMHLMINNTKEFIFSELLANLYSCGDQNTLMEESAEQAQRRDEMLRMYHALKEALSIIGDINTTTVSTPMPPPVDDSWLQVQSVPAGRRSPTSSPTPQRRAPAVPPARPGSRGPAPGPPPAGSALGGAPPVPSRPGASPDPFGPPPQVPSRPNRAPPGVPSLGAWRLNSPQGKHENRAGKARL", "assay": "Ring stabilizer activity at dynamin in mouse podocytes assessed as increase in well-defined stress fibers incubated for 10 mins", "format": "cell-based"}, "Ovis aries [4]": {"species": "Ovis aries", "assay": "Induction of self assembly of full-length native sheep brain dynamin 1 assessed as formation of dynamin rings at 5.4 uM using 200 nM full-length dynamin in absence of PS liposomes by electron microscopic analysis"}, "[5]": {"assay": "Inhibition of helical full-length native sheep brain dynamin 1 assessed as reduction in PS liposomes-induced GTPase activity", "design": "species or system Ovis aries"}, "Ovis aries [6]": {"species": "Ovis aries", "assay": "Induction of helical shape alteration of full-length native sheep brain dynamin 1 by electron microscopic analysis"}, "Ovis aries [7]": {"species": "Ovis aries", "assay": "Ring stabilizer activity at full-length native sheep brain dynamin 1 assessed as stimulation of GTPase activity using 800 nM full-length dynamin in presence of 30 mM NaCl in absence of PS liposomes and measured after 4 mins", "settings": "TDE = time-dependent effect"}, "Ovis aries [8]": {"species": "Ovis aries", "assay": "Ring stabilizer activity at full-length native sheep brain dynamin 1 assessed as increase in basal dynamin GTP hydrolysis up to 40 mins"}, "Ovis aries [9]": {"species": "Ovis aries", "assay": "Ring stabilizer activity at full-length native sheep brain dynamin 1 assessed as stimulation of GTPase activity in absence of PS liposomes and in presence of tween-80"}, "Mus musculus [10]": {"system": "Mus musculus", "assay": "Reduction in proteinuria in BALB/c mouse model of LPS-induced reversible proteinuric kidney disease at 300 ug/100 g body weight, ip measured 2 to 6 hrs post dose by ELISA", "format": "functional, organism-based"}, "Mus musculus [11]": {"species": "Mus musculus", "assay": "Inhibition of endocytosis in mouse podocytes", "format": "functional, cell-based"}, "Dynamin-1 (Homo sapiens)": {"biological_target": "T2, Dynamin-1 (Homo sapiens) (UniProt Q05193)", "T2 sequence (whole entry)": "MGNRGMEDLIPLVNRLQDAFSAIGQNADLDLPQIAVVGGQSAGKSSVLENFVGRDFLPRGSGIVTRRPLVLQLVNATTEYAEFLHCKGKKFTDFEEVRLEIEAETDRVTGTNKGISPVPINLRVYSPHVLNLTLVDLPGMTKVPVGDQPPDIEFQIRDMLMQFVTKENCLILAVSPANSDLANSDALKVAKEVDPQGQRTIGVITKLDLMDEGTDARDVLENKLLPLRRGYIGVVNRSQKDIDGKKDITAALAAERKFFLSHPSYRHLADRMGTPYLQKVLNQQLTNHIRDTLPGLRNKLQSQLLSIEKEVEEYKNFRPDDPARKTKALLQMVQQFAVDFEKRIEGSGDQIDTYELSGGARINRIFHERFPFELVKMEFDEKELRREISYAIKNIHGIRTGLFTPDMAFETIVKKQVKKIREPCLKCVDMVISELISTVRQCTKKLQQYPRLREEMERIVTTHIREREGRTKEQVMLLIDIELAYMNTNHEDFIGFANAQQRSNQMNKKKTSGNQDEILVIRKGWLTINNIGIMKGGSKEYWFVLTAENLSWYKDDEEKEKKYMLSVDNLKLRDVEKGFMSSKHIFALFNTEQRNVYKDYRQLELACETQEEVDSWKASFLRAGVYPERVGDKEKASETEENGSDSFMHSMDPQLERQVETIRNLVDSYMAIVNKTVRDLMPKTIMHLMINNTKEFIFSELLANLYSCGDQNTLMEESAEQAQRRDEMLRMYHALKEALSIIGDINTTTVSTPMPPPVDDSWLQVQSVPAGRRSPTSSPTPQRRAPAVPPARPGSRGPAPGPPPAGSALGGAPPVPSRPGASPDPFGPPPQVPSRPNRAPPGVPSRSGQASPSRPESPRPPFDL", "assay": "Ring stabilizer activity at recombinant dynamin 1 dimeric GG2 form (unknown origin) assessed as stimulation of GTPase activity using 200 to 1000 nM full-length dynamin"}, "Dynamin-1 (Mus musculus) [12]": {"biological_target": "T1, Dynamin-1 (Mus musculus)", "assay": "Ring stabilizer activity at dynamin in mouse podocytes assessed as increase in focal adhesions incubated for 10 mins by paxillin staining based assay", "format": "cell-based"}, "Ovis aries [13]": {"species": "Ovis aries", "assay": "Inhibition of full-length native sheep brain dynamin 1 assessed as reduction in PS liposomes-induced GTPase activity at 5 uM using 400 nM full-length dynamin 1"}, "Ovis aries [14]": {"species": "Ovis aries", "assay": "Ring stabilizer activity at full-length native sheep brain dynamin 1 assessed as stimulation of GTPase activity at 5 uM in absence of PS liposomes using =>100 nM full-length dynamin 1"}, "Mus musculus [15]": {"system": "Mus musculus", "assay": "Reduction in proteinuria in BALB/c mouse model of LPS-induced reversible proteinuric kidney disease at 300 ug/100 g body weight, ip measured 8 hrs post dose by ELISA", "format": "functional, organism-based"}, "Ovis aries [16]": {"species": "Ovis aries", "assay": "Ring stabilizer activity at full-length native sheep brain dynamin 1 assessed as increase in basal dynamin GTP hydrolysis up to 40 mins in presence of Gsn-F-actin"}, "Ovis aries [17]": {"species": "Ovis aries", "assay": "Inhibition of dis-assembly of pre-assembled full-length native sheep brain dynamin 1 pre-incubated in presence of PS liposomes followed compound addition at 5 uM and measured after 10 mins"}, "Mus musculus [18]": {"system": "Mus musculus", "assay": "Reduction in proteinuria in mouse model of proteinuria expressing ACTN4 gene gain of function mutation at 166 ug/100 g body weight, ip dosed at 0 hrs and measured every 2 hrs post dose up to 6 hrs by ELISA and creatinine companion assay", "format": "functional, organism-based"}}, "note": "The source made the active and inactive calls. No cut-off for these calls is given here.", "data": [{"smiles": "N#C/C(=C\\c1cc(O)c(O)c(O)c1)C(=O)NCCCNC(=O)/C(C#N)=C/c1cc(O)c(O)c(O)c1", "values": [{"measurement": "inhibition", "setting": "Ovis aries [1]", "value": "Active"}, {"measurement": "Activity", "setting": "Ovis aries [2]", "value": "inactive"}, {"measurement": "Activity", "setting": "Dynamin-1 (Mus musculus) [3]", "value": "Active"}, {"measurement": "Activity", "setting": "Ovis aries [4]", "value": "Active"}, {"measurement": "IC50", "setting": "[5]", "value": 500, "unit": "nM"}, {"measurement": "Activity", "setting": "Ovis aries [6]", "value": "Active"}, {"measurement": "Activity", "setting": "Ovis aries [7]", "value": "Tde"}, {"measurement": "Activity", "setting": "Ovis aries [8]", "value": "Active"}, {"measurement": "Activity", "setting": "Ovis aries [9]", "value": "Active"}, {"measurement": "Activity", "setting": "Mus musculus [10]", "value": "Active"}, {"measurement": "inhibition", "setting": "Mus musculus [11]", "value": "Active"}, {"measurement": "Activity", "setting": "Dynamin-1 (Homo sapiens)", "value": "inactive"}, {"measurement": "Activity", "setting": "Dynamin-1 (Mus musculus) [12]", "value": "Active"}, {"measurement": "inhibition", "setting": "Ovis aries [13]", "value": "inactive"}, {"measurement": "Activity", "setting": "Ovis aries [14]", "value": "Active"}, {"measurement": "Activity", "setting": "Mus musculus [15]", "value": "inactive"}, {"measurement": "Activity", "setting": "Ovis aries [16]", "value": "Active"}, {"measurement": "inhibition", "setting": "Ovis aries [17]", "value": "Active"}, {"measurement": "Activity", "setting": "Mus musculus [18]", "value": "Active"}]}]}
